Reference: ChEMBL document CHEMBL1201862, “PubChem BioAssay data set” (2004)
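Following 48 hours of exposure in 96-well plates, responses at five concentrations were used to interpolate endpoints linearly. The concentration for 50% growth inhibition is given as GI50.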 The source made the active and inactive calls. Cut-off read from the data, not from the text of the source: active = GI50 up to about 1.1 µM and inactive = higher.

Tests used:
Assay in all cases: DTP human tumour cell line panel, 48 h
MDA-MB-435 = tested on: MDA-MB-435
DU-145 = tested on: DU-145
SR = tested on: SR
PC-3 = tested on: PC-3
SW-620 = tested on: SW-620
OVCAR-3 = tested on: OVCAR-3
UACC-257 = tested on: UACC-257
Malme-3M = tested on: Malme-3M
SNB-75 = tested on: SNB-75
COLO 205 = tested on: COLO 205
U-251 = tested on: U-251
SNB-19 = tested on: SNB-19
CCRF-CEM = tested on: CCRF-CEM
OVCAR-8 = tested on: OVCAR-8
EKVX = tested on: EKVX
BT-549 = tested on: BT-549
ACHN = tested on: ACHN
SK-MEL-28 = tested on: SK-MEL-28
Hs-578T = tested on: Hs-578T
HOP-92 = tested on: HOP-92
OVCAR-4 = tested on: OVCAR-4
IGROV-1 = tested on: IGROV-1
RPMI-8226 = tested on: RPMI-8226
CAKI-1 = tested on: CAKI-1
HCC 2998 = tested on: HCC 2998
SF-539 = tested on: SF-539
HCT-116 = tested on: HCT-116
SF-295 = tested on: SF-295
UACC-62 = tested on: UACC-62
OVCAR-5 = tested on: OVCAR-5
NCI-H460 = tested on: NCI-H460
MDA-N = tested on: MDA-N
SF-268 = tested on: SF-268
LOX IMVI = tested on: LOX IMVI
KM12 = tested on: KM12
HOP-62 = tested on: HOP-62
T47D = tested on: T47D
TK-10 = tested on: TK-10
MOLT-4 = tested on: MOLT-4
UO-31 = tested on: UO-31
786-0 = tested on: 786-0
M14 = tested on: M14
SN12C = tested on: SN12C
A549 = tested on: A549
A498 = tested on: A498
HL-60 = tested on: HL-60
HCT-15 = tested on: HCT-15
SK-MEL-2 = tested on: SK-MEL-2
NCI-H522 = tested on: NCI-H522
MDA-MB-231 = tested on: MDA-MB-231
SK-MEL-5 = tested on: SK-MEL-5
HT-29 = tested on: HT-29
NCI-H23 = tested on: NCI-H23
MCF7 = tested on: MCF7
NCI/ADR-RES = tested on: NCI/ADR-RES

## CCOC(=O)C1C(c2ccc(O)c(OC)c2)c2c(n[nH]c2O)CC1(C)O (stereo not given)
MDA-MB-435
  GI50: > 100 µM (inactive)
DU-145
  GI50: > 100 µM (inactive)
SR
  GI50: > 100 µM (inactive)
PC-3
  GI50: > 100 µM (inactive)
SW-620
  GI50: > 100 µM (inactive)
OVCAR-3
  GI50: > 100 µM (inactive)
UACC-257
  GI50: > 100 µM (inactive)
Malme-3M
  GI50: > 100 µM (inactive)
SNB-75
  GI50: > 100 µM (inactive)
COLO 205
  GI50: > 100 µM (inactive)
U-251
  GI50: > 100 µM (inactive)
SNB-19
  GI50: > 100 µM (inactive)
CCRF-CEM
  GI50: > 100 µM (inactive)
OVCAR-8
  GI50: > 100 µM (inactive)
EKVX
  GI50: > 100 µM (inactive)
BT-549
  GI50: 0.0159 µM (active)
ACHN
  GI50: > 100 µM (inactive)
SK-MEL-28
  GI50: > 100 µM (inactive)
Hs-578T
  GI50: > 100 µM (inactive)
HOP-92
  GI50: > 100 µM (inactive)
OVCAR-4
  GI50: > 100 µM (inactive)
IGROV-1
  GI50: > 100 µM (inactive)
RPMI-8226
  GI50: > 100 µM (inactive)
CAKI-1
  GI50: > 100 µM (inactive)
HCC 2998
  GI50: > 100 µM (inactive)
SF-539
  GI50: > 100 µM (inactive)
HCT-116
  GI50: > 100 µM (inactive)
SF-295
  GI50: > 100 µM (inactive)
UACC-62
  GI50: > 100 µM (inactive)
OVCAR-5
  GI50: > 100 µM (inactive)
NCI-H460
  GI50: > 10 µM (inactive)
MDA-N
  GI50: > 100 µM (inactive)
SF-268
  GI50: > 100 µM (inactive)
LOX IMVI
  GI50: > 100 µM (inactive)
KM12
  GI50: > 100 µM (inactive)
HOP-62
  GI50: > 100 µM (inactive)
T47D
  GI50: > 100 µM (inactive)
TK-10
  GI50: > 100 µM (inactive)
MOLT-4
  GI50: > 100 µM (inactive)
UO-31
  GI50: > 100 µM (inactive)
786-0
  GI50: > 100 µM (inactive)
M14
  GI50: > 100 µM (inactive)
SN12C
  GI50: > 100 µM (inactive)
A549
  GI50: > 100 µM (inactive)
A498
  GI50: > 100 µM (inactive)
HL-60
  GI50: > 100 µM (inactive)
HCT-15
  GI50: > 100 µM
SK-MEL-2
  GI50: > 100 µM (inactive)
NCI-H522
  GI50: > 100 µM (inactive)
MDA-MB-231
  GI50: > 100 µM (inactive)
SK-MEL-5
  GI50: > 100 µM (inactive)
HT-29
  GI50: > 100 µM (inactive)
NCI-H23
  GI50: > 100 µM (inactive)
MCF7
  GI50: > 100 µM (inactive)
NCI/ADR-RES
  GI50: > 100 µM (inactive)
